Results published in EPA's CvTdb concentration-time database.

Key:
[1] = test system: Mouse; assay: concentration in plasma after dosing; conditions: dosed: 2-Hydroxy-4-methoxybenzophenone, 100 mg/kg, oral, Male, B6C3F1
[2] = test system: Rat; assay: concentration in plasma after dosing; conditions: dosed: 2-Hydroxy-4-methoxybenzophenone, 8 mg/kg, iv, Male, F344
[3] = test system: Mouse; assay: concentration in plasma after dosing; conditions: 3 h; dosed: 2-Hydroxy-4-methoxybenzophenone; 250 mg/kg; oral; Male; B6C3F1
[4] = test system: Rat; assay: concentration in plasma after dosing; conditions: dosed: 2-Hydroxy-4-methoxybenzophenone, 250 mg/kg, oral, Male, F344
[5] = test system: Rat; assay: concentration in plasma after dosing; conditions: dosed: 2-Hydroxy-4-methoxybenzophenone, 8 mg/kg, iv, Male, F344; remark: listed apart in the source
[6] = test system: Mouse; assay: concentration in plasma after dosing; conditions: 10 min; dosed: 2-Hydroxy-4-methoxybenzophenone; 500 mg/kg; oral; Female; B6C3F1
[7] = test system: Mouse; assay: concentration in plasma after dosing; conditions: 2 h; dosed: 2-Hydroxy-4-methoxybenzophenone; 250 mg/kg; oral; Female; B6C3F1
[8] = test system: Rat; assay: concentration in plasma after dosing; conditions: 0.25 h; dosed: 2-Hydroxy-4-methoxybenzophenone; 500 mg/kg; oral; Female; F344
[9] = test system: Rat; assay: concentration in plasma after dosing; conditions: 2 min; dosed: Nitrite; 80 mg/kg; oral; Female; F344
[10] = test system: Rat; assay: concentration in plasma after dosing; conditions: dosed: Nitrite, 20 mg/kg, iv, Male, F344
[11] = test system: Rat; assay: concentration in plasma after dosing; conditions: dosed: Nitrite, 80 mg/kg, oral, Female, F344
[12] = test system: Rat; assay: concentration in liver after dosing; conditions: 24 h; dosed: Perfluorooctanoic acid; 12 mg/kg; oral; Male; Harlan Sprague Dawley
[13] = test system: Rat; assay: concentration in liver after dosing; conditions: 3 h; dosed: Perfluorooctanoic acid; 80 mg/kg; oral; Female; Harlan Sprague Dawley
[14] = test system: Rat; assay: concentration in kidney after dosing; conditions: 1 h; dosed: Fluorotelomer alcohol 8+2; 80 mg/kg; oral; Female; Harlan Sprague Dawley
[15] = test system: Rat; assay: concentration in kidney after dosing; conditions: 6 h; dosed: Perfluorooctanoic acid; 12 mg/kg; oral; Male; Harlan Sprague Dawley
[16] = test system: Rat; assay: concentration in liver after dosing; conditions: 6 h; dosed: Fluorotelomer alcohol 8+2; 80 mg/kg; oral; Female; Harlan Sprague Dawley
[17] = test system: Rat; assay: concentration in kidney after dosing; conditions: 6 h; dosed: Perfluorooctanoic acid; 80 mg/kg; oral; Female; Harlan Sprague Dawley
[18] = test system: Rat; assay: concentration in liver after dosing; conditions: 3 h; dosed: Perfluorooctanoic acid; 12 mg/kg; oral; Male; Harlan Sprague Dawley
[19] = test system: Rat; assay: concentration in kidney after dosing; conditions: 12 h; dosed: Perfluorooctanoic acid; 80 mg/kg; oral; Female; Harlan Sprague Dawley
[20] = test system: Rat; assay: concentration in liver after dosing; conditions: 1200 h; dosed: Perfluorooctanoic acid; 12 mg/kg; oral; Male; Harlan Sprague Dawley
[21] = test system: Rat; assay: concentration in plasma after dosing; conditions: dosed: 678-39-7, 40 mg/kg, iv, Male, F344
[22] = test system: Rat; assay: concentration in plasma after dosing; conditions: 0.75 h; dosed: Potassium Perfluorobutane Sulfonate; 4 mg/kg; iv; Female; Harlan Sprague-Dawley
[23] = test system: Rat; assay: concentration in liver after dosing; conditions: 6 h; dosed: Potassium Perfluorobutane Sulfonate; 20 mg/kg; oral; Male; Harlan Sprague Dawley
[24] = test system: Rat; assay: concentration in plasma after dosing; conditions: 1.5 h; dosed: Potassium Perfluorobutane Sulfonate; 4 mg/kg; iv; Male; F344
[25] = test system: Rat; assay: concentration in plasma after dosing; conditions: 1.5 h; dosed: Potassium Perfluorobutane Sulfonate; 20 mg/kg; oral; Male; Harlan Sprague Dawley
[26] = test system: Rat; assay: concentration in plasma after dosing; conditions: dosed: Potassium Perfluorobutane Sulfonate, 4 mg/kg, oral, Male, Harlan Sprague Dawley
[27] = test system: Rat; assay: concentration in plasma after dosing; conditions: 1 h; dosed: Potassium Perfluorobutane Sulfonate; 4 mg/kg; iv; Male; F344
[28] = test system: Rat; assay: concentration in plasma after dosing; conditions: dosed: Potassium Perfluorobutane Sulfonate, 4 mg/kg, iv, Male, F344
[29] = test system: Rat; assay: concentration in plasma after dosing; conditions: dosed: Potassium Perfluorobutane Sulfonate, 4 mg/kg, oral, Male, Harlan Sprague Dawley; remark: listed apart in the source
[30] = test system: rat; assay: concentration in blood after dosing (ugEq/g tissue); conditions: dosed: benzo[a]pyrene, iv, male, Wistar

COc1ccc(C(=O)c2ccccc2)c(O)c1 [2-Hydroxy-4-methoxybenzophenone]
concentration in plasma [ng/mL]
Conditions	0.25 h	2 h	2.5 min	3 h	10 min
[1]	64.6	21.1	26.8	20	39.6
[2]	1950	84.6	–	–	–
[4]	–	–	–	71.3	35.9
[5]	2370	113	–	–	–

Conditions	concentration in plasma [ng/mL]
[3]	37.2
[6]	535
[7]	55.6
[8]	1730

O=N[O-] [Nitrite]
Conditions	concentration in plasma [ng/mL]
[9]	2900

concentration in plasma [ng/mL]
Conditions	1 h	1.25 h	2 h	10 min
[10]	–	2000	–	15400
[11]	19000	–	8500	–

O=C(O)C(F)(F)C(F)(F)C(F)(F)C(F)(F)C(F)(F)C(F)(F)C(F)(F)F [Perfluorooctanoic acid]
Conditions	concentration in kidney [ng/g]	concentration in liver [ng/g]
[12]	–	60800
[13]	–	162000
[14]	353	–
[15]	37600	–
[16]	–	1600
[17]	175000	–
[18]	–	50700
[19]	93700	–
[20]	–	7530

[21]
Conditions	concentration in plasma [ng/mL]
0.25 h	970
6 h	1760

O=S(=O)([O-])C(F)(F)C(F)(F)C(F)(F)C(F)(F)F.[K+] [Potassium Perfluorobutane Sulfonate]
Conditions	concentration in liver [ng/g]	concentration in plasma [ng/mL]
[22]	–	6450
[23]	51600	–
[24]	–	17300
[25]	–	58500
[27]	–	17700

concentration in plasma [ng/mL]
Conditions	0.5 h	3 h	5 min	9 h
[26]	6060	–	–	5230
[28]	–	305	26400	–
[29]	7030	–	–	5080

c1ccc2c(c1)cc1ccc3cccc4ccc2c1c34 [benzo[a]pyrene]
concentration in blood, [30]
Conditions	2 mg/kg	6 mg/kg	15 mg/kg
0.5 h	0.66	2.42	13.8
0.75 h	0.47	1.99	10.6
1 h	0.42	1.72	8.52
1.5 h	0.17	0.5	7.16
2 h	0.35	0.14	3.93
3 h	–	0.03	1.86
4 h	–	–	0.19
5 h	–	0.01	0.09
5 min	2.64	4.66	28.8
6 h	–	–	0.05
8 h	–	–	0.02
10 min	1.85	5	29.8
20 min	1.2	3.78	15.9
24 h	–	–	0.015
32 h	–	–	0.002
